Data taken from patent US5114936A, “6,7-dihydro-3-phenyl-1,2-benzisoxazol-4(5H)-ones and -ols, compositions and pharmaceutical use” (Hoechst-Roussel Pharmaceuticals Incorporated, priority 1991, dated 1992).
Counter-ions that a name gives are not always drawn.

Tested on: apomorphine climbing
Experiment: Climbing Mice Assay (antagonism of apomorphine-induced climbing)
Assay type: in vivo, mice (CK-1 male mice)
Details: Mus musculus; ip; apomorphine 1.5 mg/kg subcutaneously
Protocol: Antipsychotic activity is determined in the Climbing Mice Assay by a method similar to that described by P. Protais, et al., Psychopharmacol., 50, 1 (1976) and B. Costall, Eur. J. Pharmacol., 50, 39 (1978).
The subject CK-1 male mice (23-27 grams) are group-housed under standard laboratory conditions. The mice are individually placed in wire mesh stick cages (4"×4"×10") and are allowed one hour for adaptation and exploration of the new environment. Then apomorphine is injected subcutaneously at 1.5 mg/kg, a dose causing climbing in all subjects for 30 minutes.
Compounds to be tested for antipsychotic activity are injected intraperitoneally or given orally at various time intervals, e.g. 30 minutes, 60 minutes, etc. prior to the apomorphine challenge at a screening dose of 10-60 mg/kg.
For evaluation of climbing, 3 readings are taken at 10, 20 and 30 minutes after apomorphine administration according to the following scale:
4 paws on bottom (no climbing)
2 paws on the wall (rearing)
4 paws on the wall (full climb)
Mice consistently climbing before the injection of apomorphine will be discarded.
With full-developed apomorphine climbing, the animals are hanging on to the cage walls, rather motionless, over longer periods of time. By contrast, climbs due to mere motor stimulation usually only last a few seconds.
The climbing scores are individually totaled (maximal score: 6 per mouse over 3 readings) and the total score of the control group (vehicle intraperitoneally-apomorphine subcutaneously) is set to 100%. ED50 values with 95% confidence limits, calculated by a linear regression analysis, of some of the compounds of the instant invention as well as a standard antipsychotic agent are presented in Table I.

SMILES | ED50 [mg/kg]
O=C(c1ccc(F)cc1)C1CCN(CCCC2CCc3onc(-c4cccc(F)c4)c3C2=O)CC1 (stereo not drawn) [Example 26, 6,7-Dihydro-5-[3-(4-(4-fluorobenzoyl)-1-piperidinyl)-propyl]-3-(3-fluorophenyl)-1,2-benzisoxazol-4(5H)-one hydrochloride] | 5.7
Cl.O=C(c1ccc(F)cc1)C1CCN(CCCC2CCc3onc(-c4ccccc4F)c3C2=O)CC1 (stereo not drawn) [Example 19, 6,7-Dihydro-5-[3-(4-(4-fluorobenzoyl)-1-piperidinyl)-propyl]-3-(2-fluorophenyl)-1,2-benzisoxazol-4(5H)-one hydrochloride] | 2.9
O=C(c1ccc(F)cc1)C1CCN(CCCC2CCc3onc(-c4ccc(F)cc4)c3C2=O)CC1 (stereo not drawn) [Example 20, 6,7-Dihydro-5-[3-(4-(4-fluorobenzoyl)-1-piperidinyl)-propyl]-3-(4-fluorophenyl)-1,2-benzisoxazol-4(5H)-one hydrochloride] | 6.2
COc1ccccc1N1CCN(CCCC2CCc3onc(-c4ccccc4)c3C2=O)CC1 (stereo not drawn) [Example 14, 6,7-Dihydro-5-[3-(4-(2-methoxyphenyl)-1-piperazinyl)-propyl]-3-phenyl-1,2-benzisoxazol-4(5H)-one dihydrochloride] | 15
Cl.O=C1c2c(-c3ccccc3)noc2CCC1CCCN1CCC(c2ccc(F)cc2)CC1 (stereo not drawn) [6,7-dihydro-5-[3-(4-(4-fluorophenyl)-1-piperidinyl)-propyl]-3-phenyl-1,2-benzisoxazol-4(5H)-one hydrochloride] | 6.36
CN1CCN(C2=Nc3cc(Cl)ccc3Nc3ccccc32)CC1 [clozapine, reference compound] | 9

Tested on: phenyl-p-quinone writhing
Experiment: phenyl-p-quinone writhing assay (analgesia)
Assay type: in vivo, mice
Details: Mus musculus, sc; s.c; read-out: ED50 Inhibition of Writhing
Excerpt: Exptl. Biol. Med. 95, 729 (1957)]

SMILES | ED50 [mg/kg]
CCC(=O)O[C@](Cc1ccccc1)(c1ccccc1)[C@H](C)CN(C)C [propoxyphene, reference compound] | 3.9
O=C(c1ccc(F)cc1)C1CCN(CCCC2CCc3onc(-c4ccccc4)c3C2=O)CC1 (stereo not drawn) [Example 15, 6,7-Dihydro-5-[3-(4-(4-fluorobenzoyl)-1-piperidinyl)-propyl]-3-phenyl-1,2-benzisoxazol-4(5H)-one hydrochloride] | 3.99
COc1ccccc1N1CCN(CCCC2CCc3onc(-c4ccccc4)c3C2=O)CC1 (stereo not drawn) [Example 14, 6,7-Dihydro-5-[3-(4-(2-methoxyphenyl)-1-piperazinyl)-propyl]-3-phenyl-1,2-benzisoxazol-4(5H)-one dihydrochloride] | 5.18
